How the values were obtained:
Assay in all cases: relative viability (nuclei count vs DMSO), 5 days (fraction); higher = more cells survive
[1] = compound: O[C@H]1CC[C@H](Nc2ncc3nc(Nc4c(F)cc(F)cc4F)n([C@H]4CCOC4)c3n2)CC1 [Tanzisertib] + C[C@]1(O)C[C@@H](c2nc(-c3ccc4ccc(-c5ccccc5)nc4c3)c3c(N)nccn32)C1 [Linsitinib] (partner 1 µM)
Procedure, shortened: (§1)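 Dosing by pin tool came one day after lung cancer cell lines were seeded in 1536-well plates, using either one drug or a fixed anchor-drug dose plus five library-drug doses (not always all listed) in √10 steps. After 5 days, nuclei were counted on 4× images. Relative viability is treated-well nuclei count divided by vehicle-well nuclei count, and values are medians of duplicate plates.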

[2] = compound: C[C@@H](N)c1ccc(C(=O)Nc2ccnc3[nH]ccc23)cc1 + COc1cccc2cc(-c3nc([C@H]4CC[C@H](C(=O)O)CC4)n4ncnc(N)c34)[nH]c12 [OSI-027] (partner 0.5 µM)
Procedure, shortened: as §1

[3] = compound: O[C@H]1CC[C@H](Nc2ncc3nc(Nc4c(F)cc(F)cc4F)n([C@H]4CCOC4)c3n2)CC1 [Tanzisertib] + Nc1ncn([C@H]2C[C@H](O)[C@@H](CO)O2)c(=O)n1 [Decitabine] (partner 2 µM)
Procedure, shortened: as §1

[4] = compound: C1CNCCC1C2=CC(=NN2)C3=CC=NC=C3 + Cc1cc(Nc2cc(N3CCN(C)CC3)nc(Sc3ccc(NC(=O)C4CC4)cc3)n2)n[nH]1 [Tozasertib] (partner 0.1 µM)
Procedure, shortened: as §1

Cell Line	relative viability ([1]; first compound 0.08 µM)	relative viability ([1]; first compound 0.253 µM)	relative viability ([1]; first compound 0.8 µM)	relative viability ([1]; first compound 2.53 µM)	relative viability ([1]; first compound 8 µM)	relative viability ([2]; first compound 0.04 µM)	relative viability ([2]; first compound 0.1265 µM)	relative viability ([2]; first compound 0.4 µM)	relative viability ([2]; first compound 4 µM)	relative viability ([3]; first compound 0.08 µM)	relative viability ([3]; first compound 0.253 µM)	relative viability ([3]; first compound 0.8 µM)	relative viability ([3]; first compound 2.53 µM)	relative viability ([3]; first compound 8 µM)	relative viability ([4]; first compound 0.08 µM)	relative viability ([4]; first compound 0.8 µM)	relative viability ([4]; first compound 2.53 µM)	relative viability ([4]; first compound 8 µM)	relative viability ([2]; first compound 1.265 µM)
NCI-H3122	1.03	1.05	1.09	0.898	1.03	1.2	1.14	1.06	1.1	0.43	0.409	0.412	0.366	0.439	0.366	0.416	0.408	0.417	
PC-14	1	0.987	0.885	0.942	0.572	0.846	0.968	0.904	0.625	0.261	0.23	0.212	0.192	0.202	0.648	0.589	0.661	0.542	0.712
EPLC-272H	1.46	1.18	1.19	1.12	1.08	0.285	0.308	0.308	0.293	0.43	0.366	0.43	0.381	0.353	0.357	0.221	0.367	0.314	0.244
A-427	1.15	1.11	1.14	1.07	1.17	0.407	0.392	0.509	0.466	0.58	0.567	0.569	0.537	0.631	0.203	0.214	0.19	0.22	

Source: the supplement of paper PMC10307832
